# Measurements from ChEMBL document CHEMBL1137644, “Polymyxin B induces lysis of marine pseudoalteromonads” (Antimicrob Agents Chemother, 2007).
# The source made the active and inactive calls. The rule behind the calls is not given here. Bridge positions count the residues as written; N and C are the ends. Square brackets hold non-standard residues; d marks the D form. Peptide text beside a SMILES is read from it. Dab = NCC[C@H](N)C(=O)O
# Columns and labels:
# Format in all cases: functional, organism-based
# [1] = tested on: Pseudoalteromonas; test: Antimicrobial activity against Pseudoalteromonas ER72M2 up to 50 ug/ml
# [2] = tested on: Pseudoalteromonas; test: Induction of cell lysis in Pseudoalteromonas ER72M2 assessed as outer membrane permeability at 50 ug/ml
# [3] = tested on: Pseudoalteromonas; test: Induction of cell lysis in Pseudoalteromonas ER72M2 assessed as cytoplasmic membrane integrity at 50 ug/ml
# [4] = tested on: Pseudoalteromonas; test: Induction of cell lysis in Pseudoalteromonas ER72M2 assessed as intense membrane alkalization treated at 50 ug/ml after 30 mins addition of Mg2+ and Ca2+
# [5] = tested on: Pseudoalteromonas; test: Induction of cell lysis in Pseudoalteromonas ER72M2 assessed as decrease in culture turbidity at 2 ug/ml in presence of nigericin
# [6] = tested on: Pseudoalteromonas; test: Induction of cell lysis in Pseudoalteromonas ER72M2 assessed as decrease in culture turbidity treated at 50 ug/ml after 30 mins addition of Ca2+
# [7] = tested on: Pseudoalteromonas; test: Antimicrobial activity against Pseudoalteromonas ER72M2 assessed as after 50 hrs in presence of Mg2+ and Ca2+ by epsilometer agar diffusion method
# [8] = tested on: Pseudoalteromonas; test: Induction of cell lysis in Pseudoalteromonas ER72M2 assessed as depolarization of cytoplasmic membrane treated at 50 ug/ml after 30 mins addition of Mg2+ and Ca2+
# [9] = tested on: Pseudoalteromonas; test: Induction of cell lysis in Pseudoalteromonas ER72M2 assessed as depolarization of cytoplasmic membrane at 3 ug/ml in presence of gramicidin D
# [10] = tested on: Escherichia coli; test: Induction of cell lysis in Escherichia coli HMS174 assessed as decrease in culture turbidity at 50 ug/ml
# [11] = tested on: Pseudoalteromonas; test: Induction of cell lysis in Pseudoalteromonas ER72M2 assessed as shrinkage of intracellular volume after 25 mins in presence of divalent cation by light microscopy
# [12] = tested on: Pseudoalteromonas; test: Induction of cell lysis in gramicidin D-deplolarized Pseudoalteromonas ER72M2 assessed as decrease in culture turbidity at 2 ug/ml
# [13] = tested on: Pseudoalteromonas; test: Induction of cell lysis in Pseudoalteromonas ER72M2 assessed as binding of phenyldicarbaundecaborane at 3 ug/ml in presence of gramicidin D
# [14] = tested on: Pseudoalteromonas; test: Induction of cell lysis in Pseudoalteromonas ER72M2 assessed as extracellular K+ concentration treated at 50 ug/ml after 30 mins addition of Mg2+ and Ca2+
# [15] = tested on: Pseudoalteromonas; test: Induction of cell lysis in Pseudoalteromonas ER72M2 assessed as complete lysis treated at 50 ug/ml after 30 mins addition of Ca2+, Mg2+
# [16] = tested on: Pseudoalteromonas; test: Induction of cell lysis in Pseudoalteromonas ER72M2 assessed as decrease in culture turbidity
# [17] = tested on: Pseudoalteromonas; test: Induction of cell lysis in Pseudoalteromonas ER72M2 assessed as voltage dissipation in presence of KCN
# [18] = tested on: Pseudoalteromonas; test: Induction of cell lysis in Pseudoalteromonas ER72M2 assessed as accumulation of phenyldicarbaundecaborane treated at 50 ug/ml after 30 mins addition of Mg2+ and Ca2+
# [19] = tested on: Pseudoalteromonas; test: Induction of cell lysis in Pseudoalteromonas ER72M2 assessed as decipation of K+ gradient on cytoplasmic membrane treated at 50 ug/ml after 30 mins addition of Mg2+ and Ca2+
# [20] = tested on: Pseudoalteromonas; test: Induction of cell lysis in Pseudoalteromonas ER72M2 assessed as dipolarization of cytoplasmic membrane treated at 50 ug/ml after 30 mins incubation
# [21] = tested on: Pseudoalteromonas; test: Induction of cell lysis in Pseudoalteromonas ER72M2 assessed as permeability across outer membrane at 2 ug/ml
# [22] = tested on: Pseudoalteromonas; test: Induction of cell lysis in Pseudoalteromonas ER72M2 assessed as accumulation of tetraphenylphonium treated at 50 ug/ml after 30 mins addition of Mg2+ and Ca2+
# [23] = tested on: Pseudoalteromonas espejiana; test: Induction of cell lysis in Pseudoalteromonas espejiana BAL31 assessed as decrease in culture turbidity at 50 ug/ml
# [24] = tested on: Pseudoalteromonas; test: Induction of cell lysis in Pseudoalteromonas ER72M2 assessed as decrease in culture turbidity at 2 ug/ml in presence of gramicidin D
# [25] = tested on: Pseudoalteromonas; test: Induction of cell lysis in Pseudoalteromonas ER72M2 assessed as accumulation of phenyldicarbaundecaborane treated at 50 ug/ml after 30 mins incubation
# [26] = tested on: Pseudoalteromonas; test: Induction of cell lysis in Pseudoalteromonas A28 assessed as decrease in culture turbidity at 50 ug/ml
# [27] = tested on: Pseudoalteromonas; test: Induction of cell lysis in Pseudoalteromonas ER72M2 assessed as increase in alkalization of membrane treated at 50 ug/ml after 30 mins incubation
# [28] = tested on: Pseudoalteromonas; test: Antimicrobial activity against Pseudoalteromonas ER72M2 after 50 hrs in presence of Ca2+ cation by epsilometer agar diffusion method
# [29] = tested on: Pseudoalteromonas; test: Induction of cell lysis in Pseudoalteromonas ER72M2 assessed as leakage of intracellular K+ treated at 50 ug/ml after 30 mins incubation
# [30] = tested on: Pseudoalteromonas; test: Induction of cell lysis in Pseudoalteromonas ER72M2 at 10 ug/ml in presence of arsenate
# [31] = tested on: Pseudoalteromonas; test: Induction of cell lysis in Pseudoalteromonas ER72M2 assessed as increase in accumulation of phenyldicarbaundecaborane at 2 ug/ml
# [32] = tested on: Pseudoalteromonas; test: Induction of cell lysis in Pseudoalteromonas ER72M2 assessed as increase in accumulation of tetraphenylphonium at 2 ug/ml
# [33] = tested on: Pseudoalteromonas; test: Induction of cell lysis in Pseudoalteromonas ER72M2 assessed as decrease in culture turbidity treated at 50 ug/ml after 30 mins addition of Ca2+, Mg2+
# [34] = tested on: Pseudoalteromonas; test: Induction of cell lysis in Pseudoalteromonas ER72M2 at 10 ug/ml
# [35] = tested on: Pseudoalteromonas; test: Induction of cell lysis in Pseudoalteromonas ER72M2 assessed as increase in extracellular concentration of tetraphenylphonium treated at 50 ug/ml after 30 mins incubation
# [36] = tested on: Pseudoalteromonas; test: Antimicrobial activity against Pseudoalteromonas ER72M2 after 50 hrs by epsilometer agar diffusion method
# [37] = tested on: Pseudoalteromonas; test: Induction of cell lysis in Pseudoalteromonas ER72M2 assessed as leakage of intracellular K+ at 3 ug/ml in presence of gramicidin D
# [38] = tested on: Pseudoalteromonas; test: Antimicrobial activity against Pseudoalteromonas ER72M2 after 50 hrs in presence of Mg2+ cation by epsilometer agar diffusion method
# [39] = tested on: Pseudoalteromonas; test: Induction of cell lysis in Pseudoalteromonas ER72M2 assessed as decrease in culture turbidity treated at 50 ug/ml after 30 mins addition of Mg2+
compound,measurement,setting,value
CC(C)C[C@@H]1NC(=O)[C@@H](Cc2ccccc2)NC(=O)[C@H](CCN)NC(=O)[C@@H](NC(=O)[C@H](CCN)NC(=O)[C@@H](N)[C@@H](C)O)CCNC(=O)[C@H]([C@@H](C)O)NC(=O)[C@H](CCN)NC(=O)[C@H](CCN)NC1=O (H-T[Dab][Dab][Dab][dF]L[Dab][Dab]T; lactam 3-C),Activity,[1],inactive
same,Activity,[2],Active
same,Activity,[3],inactive
POLYMYXIN B,Activity,[4],Active
same,Activity,[5],Active
same,Activity,[6],Active
same,MIC,[7],0.42 µg/mL
same,Activity,[8],Active
same,Activity,[9],Active
same,Activity,[10],Active
same,Activity,[11],Active
same,Activity,[12],inactive
same,Activity,[13],Active
same,Activity,[14],Active
same,Activity,[15],inactive
same,Activity,[16],Dose-dependent effect
same,Activity,[17],Active
same,Activity,[18],Active
same,Activity,[19],Active
same,Activity,[20],Active
same,Activity,[21],inactive
same,Activity,[22],Active
same,Activity,[23],Active
same,Activity,[24],inactive
same,Activity,[25],Active
same,Activity,[2],Active
same,Activity,[26],Active
same,Activity,[27],Active
same,MIC,[28],0.11 µg/mL
same,Activity,[29],Active
same,Activity,[30],Active
same,Activity,[31],Active
same,Activity,[32],Active
same,Activity,[33],inactive
same,Activity,[34],Active
same,Activity,[35],Active
same,MIC,[36],0.33 µg/mL
same,Activity,[37],Active
same,MIC,[38],0.33 µg/mL
same,Activity,[39],Active
